Source: PubChem BioAssay (NCI)
Where “and” joins values, the source holds several entries; their conditions need not be identical. Equal values may be shown once.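 Method: 48-hour compound exposure of cells in 96-well plates, five concentrations, linear interpolation of endpoints. Here, GI50 denotes the concentration required for 50% inhibition of growth. At the TGI there is no net growth.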

Key:
Experiment in all cases: inhibition of tumour cell growth, NCI panel, 48 h
UO-31 renal = test system: UO-31 renal
MOLT-4 leukemia = test system: MOLT-4 leukemia
NCI-H460 lung = test system: NCI-H460 lung
KM12 colon = test system: KM12 colon
U251 CNS = test system: U251 CNS
LOX IMVI melanoma = test system: LOX IMVI melanoma
MDA-MB-435 = test system: MDA-MB-435
OVCAR-4 ovarian = test system: OVCAR-4 ovarian
SK-MEL-2 melanoma = test system: SK-MEL-2 melanoma
SN12C renal = test system: SN12C renal
SNB-75 CNS = test system: SNB-75 CNS
CAKI-1 renal = test system: CAKI-1 renal
SF-295 CNS = test system: SF-295 CNS
K-562 leukemia = test system: K-562 leukemia
DU-145 prostate = test system: DU-145 prostate
SF-268 CNS = test system: SF-268 CNS
SF-539 CNS = test system: SF-539 CNS
IGROV1 ovarian = test system: IGROV1 ovarian
HCT-116 colon = test system: HCT-116 colon
SR leukemia = test system: SR leukemia
SNB-19 CNS = test system: SNB-19 CNS
HL-60(TB) leukemia = test system: HL-60(TB) leukemia
MDA-N = test system: MDA-N
NCI-H226 lung = test system: NCI-H226 lung
HT29 colon = test system: HT29 colon
EKVX NSCLC = test system: EKVX NSCLC
HOP-62 NSCLC = test system: HOP-62 NSCLC
SK-MEL-28 melanoma = test system: SK-MEL-28 melanoma
A498 renal = test system: A498 renal
MCF7 breast = test system: MCF7 breast
UACC-62 melanoma = test system: UACC-62 melanoma
CCRF-CEM leukemia = test system: CCRF-CEM leukemia
A549 NSCLC = test system: A549 NSCLC
T-47D breast = test system: T-47D breast
MDA-MB-231 breast = test system: MDA-MB-231 breast
UACC-257 melanoma = test system: UACC-257 melanoma
786-0 renal = test system: 786-0 renal
ACHN renal = test system: ACHN renal
OVCAR-5 ovarian = test system: OVCAR-5 ovarian
HCC-2998 colon = test system: HCC-2998 colon
SW-620 colon = test system: SW-620 colon
COLO 205 colon = test system: COLO 205 colon
OVCAR-3 ovarian = test system: OVCAR-3 ovarian
HS 578T breast = test system: HS 578T breast
BT-549 breast = test system: BT-549 breast
SK-OV-3 ovarian = test system: SK-OV-3 ovarian
RXF 393 renal = test system: RXF 393 renal
PC-3 prostate = test system: PC-3 prostate
HCT-15 colon = test system: HCT-15 colon
NCI-H23 lung = test system: NCI-H23 lung
RPMI-8226 leukemia = test system: RPMI-8226 leukemia
OVCAR-8 ovarian = test system: OVCAR-8 ovarian
SK-MEL-5 melanoma = test system: SK-MEL-5 melanoma
MALME-3M melanoma = test system: MALME-3M melanoma
M14 melanoma = test system: M14 melanoma
NCI-H522 lung = test system: NCI-H522 lung
NCI/ADR-RES ovarian = test system: NCI/ADR-RES ovarian
TK-10 renal = test system: TK-10 renal
HOP-92 NSCLC = test system: HOP-92 NSCLC

## CN1CCN(c2ccc3[nH]c(C4=C(O)c5nc(CCl)n(C)c5C(=O)C4=O)nc3n2)CC1
UO-31 renal
  GI50: 21.8 µM
  TGI: 13.3 µM and > 100 µM
MOLT-4 leukemia
  GI50: 2.25 µM
  TGI: 50 µM and 7.68 µM
NCI-H460 lung
  TGI: 49.3 µM
KM12 colon
  GI50: 15.9 µM
  TGI: 21 µM and 35.9 µM
U251 CNS
  GI50: 2.03 µM
  TGI: 16.3 µM and 4.12 µM
LOX IMVI melanoma
  GI50: 3.07 µM
  TGI: 15.2 µM and 7.43 µM
MDA-MB-435
  GI50: 12.6 µM
  TGI: 19.3 µM and 30.8 µM
OVCAR-4 ovarian
  TGI: 44.7 µM and 33.7 µM
SK-MEL-2 melanoma
  TGI: 23.5 µM
SN12C renal
  GI50: 16.9 µM
  TGI: 20.5 µM and > 100 µM
SNB-75 CNS
  TGI: 18 µM
CAKI-1 renal
  GI50: 24.2 µM
  TGI: 37.1 µM and 74.4 µM
SF-295 CNS
  GI50: 24 µM
  TGI: 50 µM and 56.3 µM
K-562 leukemia
  GI50: 2.84 µM
  TGI: 50 µM and > 100 µM
DU-145 prostate
  GI50: 21.9 µM
  TGI: 22.4 µM and 67 µM
SF-268 CNS
  TGI: 49.1 µM
SF-539 CNS
  GI50: 2.17 µM
IGROV1 ovarian
  GI50: 24.5 µM
  TGI: 16 µM and 47.9 µM
HCT-116 colon
  GI50: 15.2 µM
  TGI: 16.1 µM and > 100 µM
SR leukemia
  TGI: 50 µM
SNB-19 CNS
  GI50: 11.8 µM
  TGI: 16.7 µM and 32.6 µM
HL-60(TB) leukemia
  GI50: 2.87 µM
  TGI: > 50 µM and 8.97 µM
MDA-N
  GI50: 26.5 µM
  TGI: 17.4 µM and > 100 µM
NCI-H226 lung
  GI50: 18.3 µM
  TGI: 36.2 µM and 37.7 µM
HT29 colon
  GI50: 13.7 µM
  TGI: 25.9 µM and 37.1 µM
EKVX NSCLC
  GI50: 15.9 µM
  TGI: 36.9 µM and 40.1 µM
HOP-62 NSCLC
  GI50: 20.7 µM
  TGI: 19.7 µM and 53.5 µM
SK-MEL-28 melanoma
  GI50: 16.1 µM
  TGI: 50 µM and 34.8 µM
A498 renal
  TGI: 22.1 µM
MCF7 breast
  TGI: 18.5 µM
UACC-62 melanoma
  GI50: 2.46 µM
  TGI: 19.4 µM and 7.37 µM
CCRF-CEM leukemia
  GI50: 15 µM
  TGI: > 50 µM and 36.4 µM
A549 NSCLC
  TGI: 50 µM and > 100 µM
T-47D breast
  GI50: 2.15 µM
  TGI: 3.99 µM and 6.95 µM
MDA-MB-231 breast
  GI50: 3.99 µM
  TGI: 25 µM and 14.8 µM
UACC-257 melanoma
  TGI: 31.9 µM
786-0 renal
  GI50: 6.05 µM
  TGI: 50 µM and > 100 µM
ACHN renal
  GI50: 5.13 µM
  TGI: 30.7 µM and 43.1 µM
OVCAR-5 ovarian
  GI50: 20 µM
  TGI: 34.5 µM and 52.7 µM
HCC-2998 colon
  TGI: 21.4 µM
SW-620 colon
  GI50: 3.61 µM
  TGI: 50 µM and > 100 µM
COLO 205 colon
  GI50: 1.79 µM
  TGI: 28.1 µM and 3.62 µM
OVCAR-3 ovarian
  TGI: 31.3 µM and 68.6 µM
HS 578T breast
  TGI: 75.5 µM
BT-549 breast
  GI50: 17.4 µM
  TGI: 19.3 µM and 40.4 µM
SK-OV-3 ovarian
  GI50: 19.8 µM
  TGI: 50 µM and 51.6 µM
RXF 393 renal
  GI50: 3.49 µM
  TGI: 9.92 µM and 16.6 µM
PC-3 prostate
  GI50: 11.7 µM
  TGI: 50 µM and 29.1 µM
HCT-15 colon
  TGI: 50 µM and > 100 µM
NCI-H23 lung
  GI50: 18.9 µM
  TGI: 30.4 µM and 44.3 µM
RPMI-8226 leukemia
  GI50: 3.14 µM
  TGI: 50 µM and 15.2 µM
OVCAR-8 ovarian
  GI50: 4.83 µM
  TGI: 16.2 µM and 29.2 µM
SK-MEL-5 melanoma
  TGI: 50 µM
MALME-3M melanoma
  GI50: 13 µM
  TGI: 11.4 µM and 30 µM
M14 melanoma
  GI50: 19.6 µM
  TGI: 20.1 µM and 52.2 µM
NCI-H522 lung
  GI50: 3.54 µM
  TGI: 3.29 µM and 12.2 µM
NCI/ADR-RES ovarian
  GI50: 88.6 µM
  TGI: > 100 µM

## O=[N+]([O-])c1ccccc1N=Nc1c(O)[nH]c2ccc(S(=O)(=O)O)cc12
UO-31 renal
  TGI: > 100 µM
MOLT-4 leukemia
  TGI: > 100 µM
NCI-H460 lung
  TGI: > 100 µM
KM12 colon
  TGI: > 100 µM
U251 CNS
  TGI: > 100 µM
LOX IMVI melanoma
  TGI: > 100 µM
MDA-MB-435
  TGI: > 100 µM
OVCAR-4 ovarian
  TGI: > 100 µM
SK-MEL-2 melanoma
  TGI: > 100 µM
SN12C renal
  TGI: > 100 µM
SNB-75 CNS
  TGI: > 100 µM
CAKI-1 renal
  TGI: > 100 µM
SF-295 CNS
  TGI: > 100 µM
K-562 leukemia
  TGI: > 100 µM
DU-145 prostate
  TGI: > 100 µM
SF-268 CNS
  TGI: > 100 µM
SF-539 CNS
  TGI: > 100 µM
IGROV1 ovarian
  TGI: > 100 µM
HCT-116 colon
  TGI: > 100 µM
TK-10 renal
  TGI: > 100 µM
SR leukemia
  TGI: > 100 µM
SNB-19 CNS
  TGI: > 100 µM
MDA-N
  TGI: > 100 µM
NCI-H226 lung
  TGI: > 100 µM
HT29 colon
  TGI: > 100 µM
EKVX NSCLC
  TGI: > 100 µM
HOP-62 NSCLC
  TGI: > 100 µM
SK-MEL-28 melanoma
  TGI: > 100 µM
A498 renal
  TGI: > 100 µM
MCF7 breast
  TGI: > 100 µM
UACC-62 melanoma
  TGI: > 100 µM
A549 NSCLC
  TGI: > 100 µM
T-47D breast
  TGI: > 100 µM
MDA-MB-231 breast
  TGI: > 100 µM
UACC-257 melanoma
  TGI: > 100 µM
786-0 renal
  TGI: > 100 µM
ACHN renal
  TGI: > 100 µM
HOP-92 NSCLC
  TGI: > 100 µM
OVCAR-5 ovarian
  TGI: > 100 µM
SW-620 colon
  TGI: > 100 µM
COLO 205 colon
  TGI: > 100 µM
OVCAR-3 ovarian
  TGI: > 100 µM
HS 578T breast
  TGI: > 100 µM
BT-549 breast
  TGI: > 100 µM
SK-OV-3 ovarian
  TGI: > 100 µM
RXF 393 renal
  TGI: > 100 µM
PC-3 prostate
  TGI: > 100 µM
HCT-15 colon
  TGI: > 100 µM
NCI-H23 lung
  TGI: > 100 µM
RPMI-8226 leukemia
  TGI: > 100 µM
OVCAR-8 ovarian
  TGI: > 100 µM
SK-MEL-5 melanoma
  TGI: > 100 µM
MALME-3M melanoma
  TGI: > 100 µM
M14 melanoma
  TGI: > 100 µM
NCI-H522 lung
  TGI: > 100 µM
NCI/ADR-RES ovarian
  TGI: > 100 µM
